According to PMC7684578, “Isopedopeptins A–H: Cationic Cyclic Lipodepsipeptides from Pedobacter cryoconitis UP508 Targeting WHO Top-Priority Carbapenem-Resistant Bacteria” (ACS Chemical Biology, 2020):
In brackets after ≈: the same amount, converted by molar mass. Read-outs that look alike come from different tables or passages of the source. Starred links: 1 amine or outer side, 2 acyl side, 3 side chain; linkers in the order of their positions; H or OH if unused. Positions of bridges follow the written chain, without caps; N, C: chain ends. Non-standard residues stand in square brackets, D forms with d. Residues, ends and D or L forms follow the SMILES beside them. X5 = CC(C)CCCCCCC[C@H](CC(=O)[*:1])O[*:2]; X2 = CCCCCCC[C@H](CC(=O)[*:1])O[*:2]; Val(3-OH) = CC(C)(O)[C@H](N)C(=O)O; X1 = C/C=C(/N[*:1])C(=O)[*:2]; Dab = NCC[C@H](N)C(=O)O; Dap = NC[C@H](N)C(=O)O

Tests used:
[1] = Bacterial membrane permeabilization assay (carboxyfluorescein leakage from liposomes); assay type: biochemical; conditions: large unilamellar liposomes from E. coli phospholipid extract, 45 min, 37 °C
[2] = test system: red blood cells from heparinized human blood; assay: in vitro; assay type: cell-based; conditions: 45 min, 100 µM, pH 7.4
Method: positive control (Bortezomib) SI of <5%. The half maximal inhibitory concentration (IC50) was determined from log concentration-effect curves using non-linear regression analysis.
Frequency of resistance (FoR). For the determination of the FoR, the MIC of compound 2 was first evaluated on solid MH-agar medium prepared in 35 mm diameter plates. Each plate contained 4 mL agar with the appropriate amount of compound. Bacterial cultures were grown and prepared as described for the MIC assay. 13 µL of bacterial culture diluted to 0.5 MacFarland was inoculated into 1 mL 0.9% NaCl resulting in ~2 × 10^6 CFU/mL. 5 µL of this bacterial suspension was spotted onto the surface of each agar plate (~10^4 CFU/spot). Plates were sealed and incubated at 37°C for 18–20 hours. Agar MIC was recorded according to CLSI guidelines as the lowest concentration of […]
faint haze caused by the inoculum. Then 9 cm plates were prepared with 25 mL MHII agar medium containing 4 × or 8 × solid MIC concentrations of test compounds and seeded with 100 µL of a bacterial preparation, concentrated by centrifugation from overnight cultures and resuspended in 0.9% NaCl, corresponding to 108 CFU and 109 CFU per plate, and spread on the agar using 4–5 glass beads of 4 mm diameter. Since CFU were evaluated using the McFarland turbidity standard, the exact CFU number plated was evaluated by plating of serial dilutions of each inoculum preparation on MHII agar plates. Plates were incubated at 37°C and colonies were counted at 24 h and 48 h post-plating. The frequencies of resistance were then calculated by counting the number of validated resistant colonies growing on antibiotic preparations divided by the evaluated number of CFU in the inoculum.
Hemolysis assay. Compounds were evaluated for hemolytic activity using red blood cells from heparinized human blood. Red blood cells (RBC) were washed three times in Tyrode buffer (130 mM NaCl, 4 mM KCl, 2.8 mM NaOAc, 1 mM MgCl2, 10 mM HEPES, 10 mM glucose, 1 mM CaCl2, adjusted to pH 7.4) and resuspended in the same buffer. Final concentrations in the hemolysis assay were: 100 µM compound, 1% DMSO, and 50% RBC, assayed in a 200 µL volume in a microtiter plate. The mixture was incubated at 37 °C for 45 min with shaking (250 rpm). After incubation, RBCs were removed by centrifugation (1000 × g for 10 min), 100 µL clear plasma was transferred to a fresh microtiter plate, and the amount of hemoglobin measured using a spectrophotometer at 540 nm. The […]
complete lysis control contained 2% Triton X-100 (in Tyrode buffer) instead of compound; the negative control contained Tyrode buffer but no compound. Percent hemolysis was calculated as:
[Abs compound] - [Abs negative control] / [Abs complete lysis control] - [Abs negative control] ×
100. Values greater than 1% hemolysis at 100 µM were regarded as a red flag.
Bacterial membrane permeabilization assay. Liposomes were manufactured and permeabilization assayed as described previously.8 Briefly, dry lipid films of E. coli polar lipid extract were formed on round-bottom flask walls. This was achieved by dissolving lipids in chloroform and evaporating the solvent under agitation and nitrogen gas flow, followed by incubation in vacuum chamber. Lipid films were re-suspended by 30 min stirring (E. coli) at 55°C in an aqueous solution of 100 mM 5(6)-carboxyfluorescein in 10 mM Tris buffer (set to pH 7.4 at 37°C). Suspensions were subjected to repeated extrusion through a 100 nm pore size polycarbonate membrane in order to reduce multilamellar structures and polydispersity. Un-trapped carboxyfluorescein was removed by gel filtration. Membrane permeability was measured by monitoring carboxyfluorescein efflux from the liposomes to the external low concentration environment, resulting in loss of self-quenching and an increased fluorescence signal. The 96-well plates were prepared with a 2-fold serial dilution of the samples in Tris buffer, as well as negative controls (background) and 0.16% Triton X-100 (maximum […]
leakage). […]

[3] = test system: A. baumannii; assay: MIC determined at the Public Health Agency of Sweden (EUCAST); assay type: cell-based; conditions: Acinetobacter baumannii
Method: (§1) 10^8 CFU/mL) with turbidity assessed using a Sensititre Nephelometer (Trek Diagnostics Systems Ltd, UK). 50 µL of this bacterial suspension was transferred to 10 mL of MHII broth to give a final bacterial concentration ≅ 5 × 10^5 CFU/mL (acceptable range 3 – 7 × 10^5 CFU/mL). 50 µL of bacterial suspension was pipetted into each well (except the medium control well, where 50 µL MHII was pipetted). Final volume in each well was 100 µL. Plates were covered and incubated without shaking for 18-20 h at 35 °C ± 2 °C. MIC was read visually, as complete inhibition of growth by the unaided eye, using the medium-only wells as the control. Each compound was assayed at least in duplicate.
(§2) Additionally, the MIC for compound 2 against clinical carbapenem-resistant strains of A. baumannii […]
(§3) determined at the Public Health Agency of Sweden (according to EUCAST recommendations).
(§4) In vitro Cytotoxicity Determination. In vitro cytotoxicity was determined by a fluorometric microculture cytotoxicity assay,7 based on hydrolysis of fluorescein diacetate to fluorescein by cells with intact plasma membranes. In short, HepG2 cells (hepatocellular carcinoma cells, ATCC), in Eagle's Minimum Essential Medium (ATCC) supplemented with 10 % fetal bovine serum, penicillin/streptomycin (100 U/100 µg/mL) and 2 mM L-glutamine, were seeded in 384-well assay plates at a density of 1000 cells/well. The cells were incubated over night at 37°C and compounds in 10 mM DMSO were added, to obtain final concentrations 64 µM – 0.25 µM in two-fold dilutions.
(§5) After incubation for 72 h at 37°C, the cells were pelleted and washed. Fluorescein diacetate was added (1 µL, 0.5 mg/mL) and the fluorescence [485 nm(exc)/530 nm(em.)] was measured after 50 min at 37°C. Bortezomib (2 µM) was used as positive control and dose response testing of doxorubicin (top concentration 2 µM) was performed repeatedly to follow assay performance over time. Cytotoxicity was assessed after 72 h with cell survival presented as survival index (SI, %) defined as fluorescence in test wells in percent of control cultures with blank values subtracted.
(§6) Criteria for a successful assay include a signal-to-noise ratio in control cultures >10, CV <30% and a 7 Lindhagen, E., Nygren, P., and Larsson, R. (2008) The fluorometric microculture cytotoxicity assay. Nat.

[4] = test system: E. coli; assay: as above; assay type: cell-based; conditions: Escherichia coli
Method: as §1, §2, §3, §4, §5, §6

[5] = test system: P. aeruginosa; assay: as above; assay type: cell-based, Pseudomonas aeruginosa; conditions: for MIC: Pseudomonas aeruginosa, Public Health Agency of Sweden
Method: as §1, §2, §3, §4, §5, §6

Row | SMILES | EC50 [1] [nM] | Hemolysis (%) [2] [%] | MIC ([3]; CARBA, Public Health Agency of Sweden, read-out: MIC A. baumannii A219) [µg/mL] | MIC ([3]; CARBA, Public Health Agency of Sweden, read-out: MIC A. baumannii A250) [µg/mL] | MIC ([3]; summary in text over strains, strains not named, read-out: MIC carbapenem-resistant A. baumannii) [µg/mL] | MIC ([4]; ATCC25922, WT, Public Health Agency of Sweden, read-out: MIC E. coli ATCC25922) [µg/mL] | MIC ([4]; CARBA, Public Health Agency of Sweden, read-out: MIC E. coli EC4129) [µg/mL] | MIC ([4]; CARBA, Public Health Agency of Sweden, read-out: MIC E. coli EC4163) [µg/mL] | MIC ([4]; summary in text over strains, strains not named, read-out: MIC carbapenem-resistant E. coli) [µg/mL] | MIC ([5]; ATCC27853, WT, read-out: MIC P. aeruginosa ATCC27853) [µg/mL] | MIC ([5]; CARBA, read-out: MIC P. aeruginosa PS826) [µg/mL] | MIC ([5]; CARBA, read-out: MIC P. aeruginosa PS992) [µg/mL] | MIC carbapenem-resistant P. aeruginosa ([5]; summary in text over strains, strains not named) [µg/mL]
1 | C/C=C1/NC(=O)[C@H](CCN)NC(=O)[C@H](CC(C)C)NC(=O)[C@H](CN)NC(=O)C[C@@H](CCCCCCCC(C)C)OC(=O)[C@H](CC(=O)O)NC(=O)[C@H](C(C)(C)O)NC(=O)[C@@H](Cc2ccccc2)NC(=O)[C@H](CN)NC(=O)[C@H]([C@@H](C)O)NC1=O [Compound 6, Isopedopeptin F] ([Dap]L[Dab][X1]T[Dap][dF][Val(3-OH)]D; linker N-C via X5) | 2000 | – | – | – | – | – | – | – | – | – | – | – | –
2 | C/C=C1/NC(=O)[C@H](CCN)NC(=O)[C@H](CC(C)C)NC(=O)[C@H](CN)NC(=O)C[C@@H](CCCCCCC)OC(=O)[C@H](CC(=O)O)NC(=O)[C@H](C(C)(C)O)NC(=O)[C@@H](Cc2ccccc2)NC(=O)[C@H](CN)NC(=O)[C@H]([C@@H](C)O)NC1=O [Compound 2, isopedopeptin B] ([Dap]L[Dab][X1]T[Dap][dF][Val(3-OH)]D; linker N-C via X2) | – | 0.8 | 2 (≈ 1.79 µM) | 2 (≈ 1.79 µM) | ≥ 1 | 1 (≈ 0.895 µM) | 2 (≈ 1.79 µM) | 1 (≈ 0.895 µM) | ≥ 2 | 4 (≈ 3.58 µM) | 4 (≈ 3.58 µM) | 4 (≈ 3.58 µM) | ≥ 4
